Test results as given in patent US12533439B2, “Antibacterial wound treatments with clot-promoting properties” (University of Georgia Research Foundation, Inc., priority 2019, dated 2026).

Key:
[1] = test system: 3T3 mouse fibroblast cells; assay: WST-8 (CCK-8) cell viability assay on dressing leachates; format: cell-based; details: 24-hour leachate
Text: The manufacturer's (Sigma-Aldrich) protocol was followed while using CCK-8 kit which utilizes highly water-soluble tetrazolium salt. In the live cells, WST-8 [2-(2-methoxy-4-nitrophenyl)-3-(4-nitrophenyl)-5-(2,4-disulfophenyl)-2H-tetrazolium monosodium salt] is reduced by dehydrogenases to give formazan (an orange-colored product), which can be detected at 450 nm. This means that a noncytotoxic material should generate a higher level of formazan than a relatively cytotoxic material because of WST-8 reduction. To obtain the leachate, samples weighing 10 mg each were added to 10 ml to in the DMEM medium for 24 hours at 37° C. The leachate was later used to grow the cells.
Seeding of cells. A culture of the fibroblast cells was grown in a 75 cm2 T-flask with Dulbecco modified Eagle's medium (DMEM) with 4.5 g/L-glutamine, 4.5 g/L glucose, 1% penicillin-streptomycin and 10% fetal bovine serum (FBS) after thawing a cryopreserved vial of fibroblast cells.^11 The cells could proliferate in an incubator which provided a physiological condition for their growth (5% CO2, 37° C.) until the confluence reached around 80-90%. […] The formula below was used to calculate cell viability.^12
To ensure that the components of wound dressing—CarboSil®, SNAP, TXA, and propolis—are not cytotoxic to the mammalian cells, a 24-hour cytotoxicity study was conducted on mouse fibroblast cells.

[2] = TXA administered within 1 hour of injury; cited from earlier work

| Structure (SMILES) | cytotoxicity (relative cell viability) [1] | reduction in deaths [2] [%] |
| --- | --- | --- |
| CC(=O)N[C@H](C(=O)O)C(C)(C)SN=O (racemic) [SNAP, S-nitroso-N-acetylpenicillamine] | non-cytotoxic | – |
| NC[C@H]1CC[C@H](C(=O)O)CC1 [TXA, tranexamic acid] | – | 32 |
